How the values were obtained:
P. aeruginosa PA14 = assay type: cell-based; settings: P. aeruginosa PA14 cultures, 100 μM compound, 17 h
PqsE S285A [1] = molecular target: T1, PqsE S285A (Pseudomonas aeruginosa, UniProt P20581, S285A); assay type: binding
hcnA = assay: qRT-PCR of hcnA transcript; settings: P. aeruginosa PA14, 100 μM compound
PqsE S160A = PqsE S160A (Pseudomonas aeruginosa, UniProt P20581, S160A); assay type: binding
PqsE S285A [2] = molecular target: T1, PqsE S285A; assay type: biochemical
WT PqsE [3] = molecular target: T2, WT PqsE (Pseudomonas aeruginosa, UniProt P20581); assay: biochemical; assay type: binding
phzH = assay: qRT-PCR of phzH transcript; settings: P. aeruginosa PA14, 100 μM compound
PqsE-RhlR interaction = PqsE-RhlR interaction (Pseudomonas aeruginosa, UniProt P20581); assay: PqsE-RhlR interaction pull-down assay; assay type: binding; settings: PqsE:compound 1:1 and 1:2 molar ratios, SDS-PAGE
WT PqsE [4] = molecular target: T2, WT PqsE; assay: Fluorescence polarization binding of BB562; settings: purified WT PqsE
P. aeruginosa PAO1 = settings: cited from earlier work

| SMILES | pyocyanin production (P. aeruginosa PA14) | ΔTm PqsE S285A (PqsE S285A [1]) | transcription of hcnA (hcnA) | ΔTm PqsE S160A (PqsE S160A) [°C] | projected IC50 for PqsE S285A relative to WT PqsE (PqsE S285A [2]) | EC50 (WT PqsE [3]) [nM] | transcription of phzH (phzH) | suppression of the interaction between PqsE and RhlR (PqsE-RhlR interaction) | apparent binding constant (Kapp), in words (WT PqsE [4]) | pyocyanin production (P. aeruginosa PAO1) |
| --- | --- | --- | --- | --- | --- | --- | --- | --- | --- | --- |
| O=C(Nc1cccc(-c2ccn[nH]2)c1)c1cccc2cn[nH]c12 [BB391] | neither molecule caused any decrease in pyocyanin production | lost the ability to shift the Tm | neither molecule drove altered transcription | 5.0 | at least a log unit higher | 255 | neither molecule drove altered transcription | neither BB391 nor BB393 suppressed the interaction |  |  |
| O=C(NCCCn1cc(-c2ccc(NC(=O)c3cccc4cn[nH]c34)cc2)nn1)c1ccc2c(c1)C(=O)OC21c2ccc(O)cc2Oc2cc(O)ccc21 [BB562] |  |  |  |  |  |  |  |  | midnanomolar range |  |
| O=C(O)c1ccccc1-c1cccnc1 [C1, 2-(pyridin-3′-yl) benzoic acid, reference compound] |  | 8.5 °C |  | 12.1 |  |  |  |  |  | did not affect pyocyanin production |

From article PMC8056388 (ACS Chemical Biology, 2021)
